Data from ChEMBL document CHEMBL5120810, “Toporosides A and B, Cyclopentenyl-Containing ω-Glycosylated Fatty Acid Amides, and Toporosides C and D from the Northwestern Pacific Marine Sponge Stelodoryx toporoki” (2022).

Tested on: H9c2
Experiment: Cardioprotective activity against TNF-alpha induced rat H9c2 cells assessed as increase in cell viability at 2.5 uM pretreated with TNF-alpha for 1 hr followed by compound addition measured after 48 hrs by MTT assay relative to control
Type: functional

SMILES: CO[C@@H](CC/C=C\CCCCC(=O)CCCCC(=O)CCCCCCCCCCO[C@@H]1O[C@H](C(=O)O)[C@@H](O)[C@H](O)[C@H]1O)C(=O)NCCc1ccc(O)c(O)c1
- Activity: 18%

SMILES: CO[C@@H](CC/C=C\CCCCC(=O)CCCCC(=O)CC/C=C\CCCCCCCCO[C@@H]1O[C@H](C(=O)O)[C@@H](O)[C@H](O)[C@H]1O)C(=O)NCCc1ccc(O)c(O)c1
- Activity: 25%

SMILES: CO[C@@H](CC/C=C\CCCCC(=O)C1=C(CC/C=C\CCCCCCCCO[C@@H]2O[C@H](C(=O)O)[C@@H](O)[C@H](O)[C@H]2O)CCC1)C(=O)NCCc1ccc(O)c(O)c1
- Activity: 23%
